Patent US12077503B2, “Substituted cyclic amides and their use as herbicides” (FMC CORPORATION, priority 2015, dated 2024)

Legend:
Type in all cases: in vivo
[1] = system: ragweed (common ragweed, Ambrosia elatior); test: Test A preemergence; details: Ambrosia artemisiifolia, pre-emergence, 240 h, preemergence, 0 to 100 scale where 0 is no effect and 100 is complete control, read-out: Ragweed plant response rating; for pest or weed control at 125 g/ha: 125 g ai/ha, visual injury rating, approximately 10 d; for pest or weed control at 500 g/ha: 500 g ai/ha
Procedure, shortened: (§1)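 Greenhouse, ~10 d after spray; visual injury vs untreated controls, 0 = no effect, 100 = complete control. Preemergence: directed soil spray over planted seeds. Postemergence: plants 2–10 cm, 1–2 leaf stage. Loam/sand blend. Compound in non-phytotoxic solvent with surfactant.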

[2] = system: pigweed (Amaranthus retroflexus); test: Test A preemergence; details: Amaranthus retroflexus, pre-emergence, 240 h, preemergence, 0 to 100 scale where 0 is no effect and 100 is complete control, read-out: Pigweed plant response rating; for pest or weed control at 125 g/ha: 125 g ai/ha, visual injury rating, approximately 10 d; for pest or weed control at 500 g/ha: 500 g ai/ha
[3] = system: giant foxtail (Setaria faberii); test: Test A preemergence; details: Setaria faberi, pre-emergence, 240 h, preemergence, 0 to 100 scale where 0 is no effect and 100 is complete control, read-out: Foxtail, Giant plant response rating; for pest or weed control at 125 g/ha: 125 g ai/ha, visual injury rating, approximately 10 d; for pest or weed control at 500 g/ha: 500 g ai/ha
Procedure, shortened: as §1

[4] = system: ryegrass, Italian (Italian ryegrass, Lolium multiflorum); test: Test A preemergence; details: Lolium multiflorum, pre-emergence, 240 h, preemergence, 0 to 100 scale where 0 is no effect and 100 is complete control, read-out: Ryegrass, Italian plant response rating; for pest or weed control at 125 g/ha: 125 g ai/ha, visual injury rating, approximately 10 d; for pest or weed control at 500 g/ha: 500 g ai/ha
Procedure, shortened: as §1

Kochia (Kochia scoparia) [5] = test: Test A preemergence; details: Bassia scoparia, pre-emergence, 240 h, preemergence, 0 to 100 scale where 0 is no effect and 100 is complete control, read-out: Kochia plant response rating; for pest or weed control at 125 g/ha: 125 g ai/ha, visual injury rating, approximately 10 d; for pest or weed control at 500 g/ha: 500 g ai/ha
Procedure, shortened: as §1

[6] = system: barnyardgrass (Echinochloa crus-galli); test: Test A preemergence; details: Echinochloa crus-galli, pre-emergence, 240 h, preemergence, 0 to 100 scale where 0 is no effect and 100 is complete control, read-out: Barnyardgrass plant response rating; for pest or weed control at 125 g/ha: 125 g ai/ha, visual injury rating, approximately 10 d; for pest or weed control at 500 g/ha: 500 g ai/ha
Procedure, shortened: as §1

[7] = system: ragweed (common ragweed, Ambrosia elatior); test: Test A postemergence; details: Ambrosia artemisiifolia, post-emergence, 240 h, postemergence; for pest or weed control at 125 g/ha: 125 g ai/ha, visual injury vs untreated controls after approx. 10 d, 0 = no effect, 100 = complete control, read-out: Ragweed plant response rating (0 to 100 scale); for pest or weed control at 500 g/ha: 500 g ai/ha, 0 to 100 scale, 0 is no effect, 100 is complete control, read-out: Ragweed plant response rating
Procedure, shortened: as §1

corn (Zea mays) = test: Test A postemergence; details: Zea mays, post-emergence, 240 h, postemergence; for plant injury at 125 g/ha: 125 g ai/ha, visual injury vs untreated controls after approx. 10 d, 0 = no effect, 100 = complete control, read-out: Corn plant response rating (0 to 100 scale); for plant injury at 500 g/ha: 500 g ai/ha, 0 to 100 scale, 0 is no effect, 100 is complete control, read-out: Corn plant response rating
Procedure, shortened: as §1

[8] = system: pigweed (Amaranthus retroflexus); test: Test A postemergence; details: Amaranthus retroflexus, post-emergence, 240 h, postemergence; for pest or weed control at 125 g/ha: 125 g ai/ha, visual injury vs untreated controls after approx. 10 d, 0 = no effect, 100 = complete control, read-out: Pigweed plant response rating (0 to 100 scale); for pest or weed control at 500 g/ha: 500 g ai/ha, 0 to 100 scale, 0 is no effect, 100 is complete control, read-out: Pigweed plant response rating
Procedure, shortened: as §1

[9] = system: giant foxtail (Setaria faberii); test: Test A postemergence; details: Setaria faberi, post-emergence, 240 h, postemergence; for pest or weed control at 125 g/ha: 125 g ai/ha, visual injury vs untreated controls after approx. 10 d, 0 = no effect, 100 = complete control, read-out: Foxtail, Giant plant response rating (0 to 100 scale); for pest or weed control at 500 g/ha: 500 g ai/ha, 0 to 100 scale, 0 is no effect, 100 is complete control, read-out: Foxtail, Giant plant response rating
Procedure, shortened: as §1

[10] = system: ryegrass, Italian (Italian ryegrass, Lolium multiflorum); test: Test A postemergence; details: Lolium multiflorum, post-emergence, 240 h, postemergence; for pest or weed control at 125 g/ha: 125 g ai/ha, visual injury vs untreated controls after approx. 10 d, 0 = no effect, 100 = complete control, read-out: Ryegrass, Italian plant response rating (0 to 100 scale); for pest or weed control at 500 g/ha: 500 g ai/ha, 0 to 100 scale, 0 is no effect, 100 is complete control, read-out: Ryegrass, Italian plant response rating
Procedure, shortened: as §1

[11] = system: wheat (Triticum aestivum); test: Test A postemergence; details: Triticum aestivum, post-emergence, 240 h, postemergence; for plant injury at 125 g/ha: 125 g ai/ha, visual injury vs untreated controls after approx. 10 d, 0 = no effect, 100 = complete control, read-out: Wheat plant response rating (0 to 100 scale); for plant injury at 500 g/ha: 500 g ai/ha, 0 to 100 scale, 0 is no effect, 100 is complete control, read-out: Wheat plant response rating
Procedure, shortened: as §1

Kochia (Kochia scoparia) [12] = test: Test A postemergence; details: Bassia scoparia, post-emergence, 240 h, postemergence; for pest or weed control at 125 g/ha: 125 g ai/ha, visual injury vs untreated controls after approx. 10 d, 0 = no effect, 100 = complete control, read-out: Kochia plant response rating (0 to 100 scale); for pest or weed control at 500 g/ha: 500 g ai/ha, 0 to 100 scale, 0 is no effect, 100 is complete control, read-out: Kochia plant response rating
Procedure, shortened: as §1

[13] = system: Galium (catchweed bedstraw, Galium aparine); test: Test A postemergence; details: Galium, post-emergence, 240 h, postemergence; for pest or weed control at 125 g/ha: 125 g ai/ha, visual injury vs untreated controls after approx. 10 d, 0 = no effect, 100 = complete control, read-out: Galium plant response rating (0 to 100 scale); for pest or weed control at 500 g/ha: 500 g ai/ha, 0 to 100 scale, 0 is no effect, 100 is complete control, read-out: Galium plant response rating
Procedure, shortened: as §1

Compound | pest or weed control at 125 g/ha [1] [%] | pest or weed control at 500 g/ha [1] [%] | pest or weed control at 125 g/ha [2] [%] | pest or weed control at 500 g/ha [2] [%] | pest or weed control at 125 g/ha [3] [%] | pest or weed control at 500 g/ha [3] [%] | pest or weed control at 125 g/ha [4] [%] | pest or weed control at 500 g/ha [4] [%] | pest or weed control at 125 g/ha (Kochia (Kochia scoparia) [5]) [%] | pest or weed control at 500 g/ha (Kochia (Kochia scoparia) [5]) [%] | pest or weed control at 125 g/ha [6] [%] | pest or weed control at 500 g/ha [6] [%] | pest or weed control at 125 g/ha [7] [%] | pest or weed control at 500 g/ha [7] [%] | plant injury at 125 g/ha (corn (Zea mays)) [%] | plant injury at 500 g/ha (corn (Zea mays)) [%] | pest or weed control at 125 g/ha [8] [%] | pest or weed control at 500 g/ha [8] [%] | pest or weed control at 125 g/ha [9] [%] | pest or weed control at 500 g/ha [9] [%] | other results
COc1ccc([C@H]2CN(C)C(=O)[C@@H]2C(=O)Nc2ccccc2F)c(OC)c1 [Compound 1215] | 0 | 0 | 0 | 0 | 60 | 90 | 0 | 0 | 0 | 90 | 90 | 100 | 0 | 0 | 0 | 0 | 0 | 0 | 70 | 90 | pest or weed control at 125 g/ha [10]: 0%; pest or weed control at 500 g/ha [10]: 0%; plant injury at 125 g/ha [11]: 0%; plant injury at 500 g/ha [11]: 0%; pest or weed control at 125 g/ha (Kochia (Kochia scoparia) [12]): 0%; pest or weed control at 500 g/ha (Kochia (Kochia scoparia) [12]): 30%; pest or weed control at 125 g/ha [13]: 0%; pest or weed control at 500 g/ha [13]: 0%
COc1cc([C@H]2CN(C)C(=O)[C@@H]2C(=O)Nc2ccccc2F)cc(OC)c1OC [Compound 1217] | 0 | 0 | 0 | 0 | 90 | 100 | 0 | 0 | 0 | 0 | 90 | 100 | 0 | 0 | 0 | 0 | 0 | 0 | 90 | 90 | pest or weed control at 125 g/ha [10]: 0%; pest or weed control at 500 g/ha [10]: 0%; plant injury at 125 g/ha [11]: 0%; plant injury at 500 g/ha [11]: 0%; pest or weed control at 125 g/ha (Kochia (Kochia scoparia) [12]): 0%; pest or weed control at 500 g/ha (Kochia (Kochia scoparia) [12]): 0%; pest or weed control at 125 g/ha [13]: 0%; pest or weed control at 500 g/ha [13]: 0%
